In patent US12097188B2, “Compositions and methods for the treatment of macular degeneration” (Aldeyra Therapeutics, Inc., priority 2009, dated 2024):
Read-outs that look alike come from different tables or passages of the source. Each block holds one molecule with its values, some of them ahead of it.

Legend:
visual cycle [1] = test: Functional biological activity in the retina: visual cycle inhibition / dark adaptation rate by ERG; details: for effect on normal function of the retina: mouse, in vivo
Excerpt: (§2) The protocol for measuring DA rates by ERG is based on the kinetics of functional visual recovery from photo-bleaching of visual pigment by brief exposure to extremely bright light.
(§3) A retinoid useful for this purpose is 13-cis-retinoic acid (RA, also known as isotretinoin).

A2E formation = A2E formation in the abcr -/- mouse after repeated IP dosing; assay type: in vivo; details: 10 mg/kg IP, repeated daily for 56 days, p<0.01
Excerpt: (§1) The target tissue, for the biological activity of compounds which reversibly react with RAL, e.g. Compounds A, B and C, is the outer segment of retinal photoreceptor cells.

in vivo = test: in vivo; set-up: species or system C57BL/6 mice; details: ip, 10 mg/kg
Excerpt: as §1

[2] = Ocular levels of 14C-Compound A in the retina and RPE of rabbits (LSC); assay type: in vivo, Dutch belted rabbits; details: for Amount of 14C-compound A in retina and RPE at tmax: rabbit, single 40 μL TO eyedrop, mean of 6 eyes
Experimental: Dutch belted rabbits were dosed TO with a single 40 μL eyedrop containing either 0.50%, 0.15% or 0.05% weight/volume ^14C-Compound A in 20%, 6% or 2% weight/volume, respectively, β-cyclodextrin sulfobutylether sodium salt in phosphate-buffered saline (Table 1). At different times after dosing the eyes of the rabbits were enucleated, dissected and the amount of ^14C-Compound A in the retina and RPE together was measured by LSC. Each value represents the mean value from 6 eyes.

visual cycle [3] = details: mouse, in vivo
Excerpt: as §2, §3

SMILES: CC(C)(O)c1cc2oc(-c3ccccc3)nc2cc1N [C]
effect on normal function of the retina (visual cycle [1]): do not alter the normal function of the retina

SMILES: CC1=C(/C=C/C(C)=C/C=C/C(C)=C\C(=O)O)C(C)(C)CCC1 [RA, 13-cis-retinoic acid, reference compound]
visual cycle inhibition (visual cycle [1]; mice, IP 20 mg/kg (FIG. 3)): show visual cycle inhibition
inhibition of dark adaptation (DA) (visual cycle [1]; mice, TO one or two 30 μL eyedrops, 0.2% w/v RA in 20% w/v β-cyclodextrin sulfobutylether sodium salt in PBS (FIG. 3)): dose-responsive inhibition of DA similar to that observed after IP dosing

SMILES: CC(C)(O)c1cc2nc(-c3ccccc3)oc2cc1N [B]
effect on normal function of the retina (visual cycle [1]): do not alter the normal function of the retina

Cmax (in vivo; C57BL/6, mouse): 14400 ng/g
Tmax in the posterior eyecup (in vivo; mouse): Thirty
Amount of 14C-compound A in retina and RPE at tmax ([2]; 0.05% w/v in 2% w/v βCSSA): 23.1 ng/g
Amount of 14C-compound A in retina and RPE at tmax ([2]; 0.15% w/v in 6% w/v βCSSA): 47.0 ng/g
Amount of 14C-compound A in retina and RPE at tmax ([2]; 0.50% w/v in 20% w/v βCSSA): 131 ng/g
amounts found in rabbit retina/RPE ([2]; within one hour of TO dosing): Significant amounts
inhibition of the visual cycle (visual cycle [3]): does not inhibit the visual cycle
SMILES: CC(C)(O)c1nc2ccc(Cl)cc2cc1N [Compound A]
reduction of A2E formation (A2E formation): 71%
effect on normal function of the retina (visual cycle [3]): do not alter the normal function of the retina
effect on rate of dark adaptation (DA) (visual cycle [3]): nor does it slow the rate of dark adaptation
